In patent US20080311594A1, “USE OF FIBROBLAST GROWTH FACTOR 7 (Fgf7) AND OF THE RECEPTOR Fgfr2b AS BIOMARKERS” (priority 2007, published 2008):
Like-named read-outs stand apart in the source and are kept apart here.

Legend:
MXT-M3 tumour = MXT-M3 tumour model in mice, tumour weight at end of test; type: in vivo
Description: For the test, an MXT-M3 tumour which was no longer strictly hormone-dependent was transplanted into mice.
The MXT(+) tumour model was induced in C57BLxDBA2F1 mice by intraperitoneal administration of a urethane solution. The developing mammary tumour could be transplanted further to mice with the same genetic background (syngeneic) and is still an established model. The MXT(+) model is distinguished very particularly by the fact that the tumours express both ER and PR in physiological concentrations. Although there are other hormone receptor-positive tumour models, frequently ER and PR are not functional therein and show no translocation from the cytoplasm into the nucleus after stimulation. Nor is it possible to show growth inhibition by hormone ablation here. These models are unsuitable for investigating antihormonal substances (Watson, Medina et al. 1977).
At the end of the test, the animals were sacrificed and the tumours were removed, and then the weight of the tumours was determined. The variation in the tumour weights is high in each group. The average tumour weights in the vehicle control group (427 mg) was 2.8 times higher than in the ovariectomized group (155 mg) and 2.2 times as high as in the group treated with 11β-(4-acetylphenyl)-17β-hydroxy-17α-(1,1,2,2,2-pentafluoroethyl)estra-4,9-dien-3-one (192 mg).
(§1) A limit was set in the ovariectomized group and that treated with 11β-(4-acetyl-phenyl)-17β-hydroxy-17α-(1,1,2,2,2-pentafluoroethyl)estra-4,9-dien-3-one: tumours having a weight higher than 100 mg were assessed as non-responders, and tumours with a weight less than 100 mg were classified as responders.
It was possible in the investigation of the tumour RNA of the in vivo experiment from Example 1 to identify biomarker candidates. To confirm these potential candidates, an independent animal experiment was carried out with the same study design, increasing the number of animals from ten to 20 per group. At the end of the test, the tumours were removed, the tumour weight was determined and the tumours were stored at −80° C. until RNA was isolated. The results are depicted in FIG. 2/5.
(§2) Exactly as in Test 1, the limit for response to the therapy and the non-response was set here at a tumour weight of 100 mg. The five largest tumours were selected from the control group. The RNA was isolated from the tumours, and gene expression of the biomarker candidates was determined.

Fgf7 [1] = experiment: Gene expression of Fgf7 in MXT tumours, GeneChip (Affymetrix) analysis; type: in vivo, mice; details: Example 1, non-responders (>100 mg) vs responders (<100 mg)
Procedure: (§3) For further gene expression studies, the RNA of selected tumours was isolated and analysed further by GeneChip analyses and real-time PCR:
(§4) The five largest tumours from the vehicle control group were selected.
as §1

Fgfr2 [2] = experiment: Gene expression of Fgfr2 in MXT tumours, real-time PCR; type: in vivo, mice; details: for Real-time regulation ZK-PRA NR versus vehicle control / Real-time regulation ZK-PRA R versus vehicle control: Fgfr2; for Real-time regulation ZK-PRA NR versus vehicle control: non-responder tumours; for Real-time regulation ZK-PRA R versus vehicle control: responder tumours
Procedure: as §3, §4, §1, §2

Fgf7 [3] = experiment: Gene expression of Fgf7 in MXT tumours, real-time PCR; type: in vivo, mice; details: for Real-time regulation ZK-PRA NR versus vehicle control / Real-time regulation ZK-PRA R versus vehicle control: Fgf7; for Real-time regulation ZK-PRA NR versus vehicle control: non-responder tumours; for Real-time regulation ZK-PRA R versus vehicle control: responder tumours
Procedure: as §3, §4, §1, §2

T47-D cells = experiment: Proliferation assay of T47-D cells with and without FGF7; type: cell-based, human; details: for growth (of maximum control): 10^−11 mol/l; for inhibition at 10 µM: 10^−5 mol/l
Procedure: The influence of FGF7 on the activity of 11β-(4-acetylphenyl)-17β-hydroxy-17α-(1,1,2,2,2-pentafluoroethyl)estra-4,9-dien-3-one was investigated on T47-D cells. […] 50 ng/ml FGF7 were added to the medium, and the activity of ZK-PRA was determined in a proliferation assay.
It was thus possible to inhibit growth by 58% through withdrawal of E2.
T47-D cells proliferate only in the presence of E2, so that E2 ablation serves as check of maximum growth inhibition. In the proliferation test without Fgf7 it was thus possible to achieve a maximum inhibition of almost 60%. On addition of Fgf7 to the medium, the effect was substantially smaller and the inhibition was now only 29%. Fgf7 thus downregulates not only ER and PR, so that the target for antiestrogens and antiprogestagens is lost, but additionally acts per se as growth factor, so that antihormonal effects or ablation of hormones are compensated. Fgf7 is a potent biomarker candidate. […] This was confirmed in an independent, second in vivo experiment. Fgf7 is a unidirectional, paracrine factor which has a local effect, but is nevertheless secreted, so that investigation is required of whether an elevated Fgf7 serum level possibly correlates with a non-response to treatment with 11β-(4-acetylphenyl)-17β-hydroxy-17α-(1,1,2,2,2-pentafluoroethyl)-estra-4,9-dien-3-one.

progesterone receptor = biological target: T1, progesterone receptor (Homo sapiens, UniProt P06401); details: Fuhrmann et al., J. Med. Chem. 2000; cited from earlier work
T1 sequence (P06401 1-933): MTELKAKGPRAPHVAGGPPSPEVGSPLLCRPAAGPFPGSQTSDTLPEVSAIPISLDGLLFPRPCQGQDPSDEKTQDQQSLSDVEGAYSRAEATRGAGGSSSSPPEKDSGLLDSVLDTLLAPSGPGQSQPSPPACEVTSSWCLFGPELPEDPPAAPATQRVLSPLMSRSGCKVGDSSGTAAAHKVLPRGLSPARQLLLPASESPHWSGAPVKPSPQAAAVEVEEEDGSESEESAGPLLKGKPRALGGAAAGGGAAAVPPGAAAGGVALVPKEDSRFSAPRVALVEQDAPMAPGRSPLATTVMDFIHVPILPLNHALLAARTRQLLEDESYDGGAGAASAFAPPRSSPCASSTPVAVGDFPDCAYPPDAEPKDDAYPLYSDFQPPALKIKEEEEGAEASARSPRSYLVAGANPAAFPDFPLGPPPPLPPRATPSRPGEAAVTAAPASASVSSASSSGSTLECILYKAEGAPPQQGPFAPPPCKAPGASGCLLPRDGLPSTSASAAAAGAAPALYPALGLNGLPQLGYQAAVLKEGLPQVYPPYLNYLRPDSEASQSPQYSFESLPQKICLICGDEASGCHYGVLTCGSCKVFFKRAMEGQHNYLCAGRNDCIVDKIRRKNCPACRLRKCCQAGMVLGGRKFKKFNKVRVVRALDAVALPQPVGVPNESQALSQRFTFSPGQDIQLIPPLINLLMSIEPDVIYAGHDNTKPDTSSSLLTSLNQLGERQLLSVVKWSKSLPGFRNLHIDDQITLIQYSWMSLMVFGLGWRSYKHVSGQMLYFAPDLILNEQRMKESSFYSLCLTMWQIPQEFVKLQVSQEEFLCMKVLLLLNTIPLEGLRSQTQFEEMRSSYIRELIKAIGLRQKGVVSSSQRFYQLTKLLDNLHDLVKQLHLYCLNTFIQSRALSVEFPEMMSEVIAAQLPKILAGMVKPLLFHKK

Fgfr2 [4] = experiment: Relative expression of Fgfr2 versus 18S rRNA in model cell lines; type: cell-based, human
Description: Relative Expression of Fgfr2 Versus 18S rRNA in 6 Model Cell Lines […]
Expression of the receptor for fibroblast growth factor 7 (Fgf7) was not regulated in the sensitive T47-D cells on treatment with ZK-PRA (1.1 times higher on treatment with ZK-PRA). Expression in the ZK-PRA-resistant T47-D without treatment was twice as high as in the sensitive T47-D cells and declined somewhat with ZK-PRA treatment to 1.3 times the value of the untreated sensitive T47-D cells. Expression in all other cells was considerably less both in normal medium and on treatment with ZK-PRA: […]

MCF-7 cells = details: recombinant Fgf7 added to the culture medium, Chang et al. 2006; cited from earlier work
[5] = system: progesterone receptor (PR-A, PR-B) in T47-D cells; experiment: Western blot analysis of the progesterone receptor under the influence of FGF7; type: cell-based, human; details: Fgf7 20 and 50 ng/ml, 24 h and 72 h
Procedure: It is reported in the literature that FGF7 downregulates both ER and PR. In order to detect this effect, cells were incubated in medium with various amounts of FGF7 for 24 h and 72 h, and then the PR content was determined.

Molecule: CC(=O)c1ccc([C@H]2C[C@@]3(C)[C@@H](CC[C@@]3(O)C(F)(F)C(F)(F)F)[C@@H]3CCC4=CC(=O)CCC4=C32)cc1 [ZK-PRA, 11β-(4-acetylphenyl)-17β-hydroxy-17α-(1,1,2,2,2-pentafluoroethyl)estra-4,9-dien-3-one]
- average tumour weight (MXT-M3 tumour; Example 1, treated group, end of test): 192 mg
- average tumour weight of vehicle control group relative to treated group (MXT-M3 tumour; Example 1, vehicle 427 mg): 2.2 times
- average tumour weight (MXT-M3 tumour; Example 2 confirmation experiment, treated group): 215 mg
- average tumour weight of vehicle control group relative to treated group (MXT-M3 tumour; Example 2 confirmation experiment, vehicle 577 mg): 2.7 times
- Affymetrix regulation ZK-PRA NR versus ZK-PRA R (Fgf7 [1]): 2.30 (±0.33)
- Fgfr2 expression, non-responders vs. control (Fgfr2 [2]; Example 1): 55%
- Fgfr2 expression, responder tumours vs. control (Fgfr2 [2]; Example 1): 30%
- Real-time regulation ZK-PRA NR versus vehicle control (Fgfr2 [2]; Example 1): 0.55 (±0.30)
- Real-time regulation ZK-PRA R versus vehicle control (Fgfr2 [2]; Example 1): 0.30 (±0.07)
- Real-time regulation ZK-PRA NR versus vehicle control (Fgfr2 [2]; Example 2 confirmation): 0.25 (±0.20)
- Real-time regulation ZK-PRA R versus vehicle control (Fgfr2 [2]; Example 2 confirmation): 0.47 (±0.34)
- Fgf7 expression in non-responder tumours relative to vehicle controls (Fgf7 [3]; Example 1): 3.12 times
- Fgf7 expression in responder tumours compared with the controls (Fgf7 [3]; Example 1): 70%
- Real-time regulation ZK-PRA NR versus vehicle control (Fgf7 [3]; Example 1): 3.12 (±0.68)
- Real-time regulation ZK-PRA R versus vehicle control (Fgf7 [3]; Example 1): 0.69 (±0.38)
- Real-time regulation ZK-PRA NR versus vehicle control (Fgf7 [3]; Example 2 confirmation): 3.25 (±1.91)
- Real-time regulation ZK-PRA R versus vehicle control (Fgf7 [3]; Example 2 confirmation): 1.72 (±0.68)
- growth (of maximum control) (T47-D cells; FGF7 50 ng/ml): 114%
- growth (of maximum control) (T47-D cells; without FGF7): 114%
- maximum growth inhibition (T47-D cells; Fgf7 50 ng/ml in the culture medium, no dose-response relation): about 20%
- inhibition at 10 µM (T47-D cells; Homo sapiens, T47D, FGF7 50 ng/ml in the medium, read-out: growth inhibition): 24%
- inhibition at 10 µM (T47-D cells; Homo sapiens, T47D, without FGF7, maximum control (E2) = 100%, read-out: growth inhibition): 42%
- inhibition at 1 µM (T47-D cells; Homo sapiens, T47D, 10^−6 mol/l, without FGF7, read-out: growth inhibition): 47%
- inhibition at 0.1 µM (T47-D cells; Homo sapiens, T47D, 10^−7 mol/l, without FGF7, read-out: growth inhibition): 50%
- growth inhibition (T47-D cells; next lower concentration after 10^−5 mol/l, FGF7 50 ng/ml): 18%
- activity in the proliferation assay (T47-D cells; sensitive T47-D cells, without FGF7): good activity
- antiprogestational activity (progesterone receptor): high antiprogestational activity
- Fgfr2 mRNA on treatment compared with untreated T47-D cells (Fgfr2 [4]; BT-474 cells): 37 times lower
- Fgfr2 mRNA on treatment compared with untreated sensitive T47-D cells (Fgfr2 [4]; MCF-7 cells): 153 times lower
- Fgfr2 expression on treatment relative to untreated sensitive T47-D cells (Fgfr2 [4]; ZK-PRA-resistant T47-D cells): 1.3 times
- Fgfr2 expression on treatment compared with T47-D under normal conditions (Fgfr2 [4]; ZR75-1 cells): 9.4 times lower
- Fgfr2 expression on treatment relative to untreated (Fgfr2 [4]; sensitive T47-D cells): 1.1 times higher

Molecule: CC/C(=C(\c1ccccc1)c1ccc(OCCN(C)C)cc1)c1ccccc1 [tamoxifen]
- activity in proliferation tests (MCF-7 cells): no activity

B1: Fgf7: Fibroblast growth factor 7, secreted glycoprotein; recombinant Fgf7 added to culture medium (protein, UniProt P21781 32-194, looked up)
Fibroblast growth factor 7: CNDMTPEQMATNVNCSSPERHTRSYDYMEGGDIRVRRLFCRTQWYLRIDKRGKVKGTQEMKNNYNIMEIRTVAVGIVAIKGVESEFYLAMNKEGKLYAKKECNEDCNFKELILENHYNTYASAKWTHNGGEMFVALNQKGIPVRGKKTKKEQKTAHFLPMAIT
- amount of PR (Western blot) [5]: distinct decrease in PR
